Source: article PMC6199744, “Development of Chemical Proteomics for the Folateome and Analysis of the Kinetoplastid Folateome” (ACS Infectious Diseases, 2018)
“And” between values parts separate entries of the source, which are not always exact repeats. Equal entries are not always repeated. Where two headings read alike, the source gives them in different places.

Test system: L. major lysate proteins
Assay: Multitargeted bead mixture chemoproteomics, single concentration competition, proteome-wide
Type: binding
Conditions: for fold change: vehicle control = 1

Nc1nc2c(c(=O)[nH]1)N(C=O)C(CNc1ccc(C(=O)N[C@@H](CCC(=O)O)C(=O)O)cc1)CN2 (some centres unmarked) [LEU, leucovorin]
fold change relative to vehicle control: 1.05 and 1.2 and 1.04
fold change vs vehicle control: 0.97 and 1.04
fold change vs vehicle control (protein CLI00016468.1 KINETOPLASTID MEMBRANE PROTEIN-11): 0.87
fold change vs vehicle control (protein LINJ.03.0240 RIBOSOMAL PROTEIN L38, PUTATIVE): 0.99
fold change vs vehicle control (protein LINJ.11.0780 40S RIBOSOMAL PROTEIN S21, PUTATIVE): 1.06
fold change (protein LINJ.11.0960 40S RIBOSOMAL PROTEIN S5): 1.08
fold change vs vehicle control (protein LINJ.13.0990 PROTEASOME REGULATORY ATPASE SUBUNIT 2, PUTATIVE): 0.99
fold change vs vehicle control (protein LINJ.15.0330 RIBONUCLEOPROTEIN P18, MIT[…], PUTATIVE): 1.01
fold change (protein LINJ.19.0090 FIBRILLARIN, PUTATIVE): 0.98
fold change relative to vehicle control (protein LINJ.23.0860, 3-KETOACYL-COA THIOLASE, PUTATIVE): 1.25
fold change relative to vehicle control (protein LINJ.24.2300, 60S RIBOSOMAL PROTEIN L12, PUTATIVE): 1.07
fold change vs vehicle control (protein LINJ.25.2230 SUCCINYL-COA […] SUBUNIT, PUTATIVE): 1.12
fold change vs vehicle control (protein LINJ.26.1630 40S RIBOSOMAL PROTEIN S33, PUTATIVE): 0.97
fold change vs vehicle control (protein LINJ.28.1100 RIBOSOMAL PROTEIN S20, PUTATIVE): 0.97
fold change relative to vehicle control (protein LINJ.28.1940, R[…] A, 51KDA SUBUNIT, PUTATIVE): 1.01
fold change (protein LINJ.28.2280 DYNEIN LIGHT CHAIN LC6, FLAGELLAR OUTER ARM, PUTATIVE): 0.84
fold change (protein LINJ.28.2870 PROTEIN PHOSPHATASE 4 CATALYTIC SUBUNIT, PUTATIVE): 0.86
fold change relative to vehicle control (protein LINJ.31.1600, […] OXIDASE VIII (COX VIII), PUTATIVE): 0.98
fold change relative to vehicle control (protein LINJ.33.1730, CYCLOPHILIN 4, PUTATIVE): 1.85
fold change vs vehicle control (protein LINJ.34.0670 PROTEASOME REGULATORY NON-ATP-ASE SUBUNIT 11, PUTATIVE,19S PROTEASOME REGULATORY SUBUNIT): 0.93
fold change vs vehicle control (protein LINJ.36.0780 PROTEIN KINASE, PUTATIVE,MITOGEN-ACTIVATED PROTEIN KINASE, PUTATIVE): 0.84
fold change relative to vehicle control (protein LINJ.36.3960, BASIC TRANSCRIPTION FACTOR 3A, PUTATIVE): 2.31
fold change relative to vehicle control (protein LINJ.36.4080, HY[…], CONSERVED): 1.26
fold change (protein LINJ.36.4180 HS1VU COMPLEX PROTEOLYTIC SUBUNIT-LIKE): 0.87
fold change vs vehicle control (protein LINJ.[…] LONG-CHAIN-FATTY-ACID-COA LIGASE, PUTATIVE): 1.05
fold change (protein LMJF.01.0570 TRIC[…], PUTATIVE): 0.89
fold change relative to vehicle control (protein LMJF.03.0200, DELTA-1-PYRROLINE-5-CARBOXYLATE DEHYDROGENASE, PUTATIVE): 1.13
fold change (protein LMJF.03.0230 LONG CHAIN FATTY ACYL COA SYNTHETASE, PUTATIVE): 0.93
fold change (protein LMJF.03.0980 ELONGATION INITIATION FACTOR 2 ALPHA SUBUNIT, PUTATIVE): 1
fold change vs vehicle control (protein LMJF.04.0630 HY[…], CONSERVED): 1.02
fold change vs vehicle control (protein LMJF.04.1230 actin): 0.94
fold change (protein LMJF.05.0100 PHOSPHOPROTEIN PHOSPHATASE, PUTATIVE): 0.74
fold change (protein LMJF.05.0280 PROTEIN TYROSINE PHOSPHATASE, PUTATIVE): 0.85
fold change (protein LMJF.05.0510 ATPASE ALPHA SUBUNIT): 1
fold change (protein LMJF.05.1040 STOMATIN-LIKE PROTEIN): 0.94
fold change (protein LMJF.06.0650 LANOSTEROL SYNTHASE, PUTATIVE): 0.97
fold change vs vehicle control (protein LMJF.07.0700 TOPOISOMERASE-RELATED FUNCTION PROTEIN-LIKE PROTEIN): 1.01
fold change (protein LMJF.07.1000 RNA BINDING PROTEIN-LIKE PROTEIN): 1.02
fold change relative to vehicle control (protein LMJF.07.1140, PEPTIDE METHIONINE SULFOXIDE REDUCTASE-LIKE): 1.3
fold change (protein LMJF.08.0510 RIBOSE-PHOSPHATE PYROPHOSPHOKINASE, PUTATIVE): 0.82
fold change vs vehicle control (protein LMJF.08.0550 T[…]-LIKE PROTEIN): 1.05
fold change relative to vehicle control (protein LMJF.08.1030, cathepsin L-like protease): 1.06
fold change vs vehicle control (protein LMJF.08.1100 HYPOTHETICAL PROTEIN, CONSERVED): 0.91
fold change vs vehicle control (protein LMJF.09.1010 HYPOTHETICAL PROTEIN, CONSERVED): 0.98
fold change relative to vehicle control (protein LMJF.09.1120, MIT[…] BINDING PROTEIN 2,MRP2, GBP25): 1.22
fold change vs vehicle control (protein LMJF.09.1260 HY[…], CONSERVED): 1.02
fold change (protein LMJF.10.0210 NUCLEOLAR PROTEIN, PUTATIVE): 0.98
fold change vs vehicle control (protein LMJF.10.0310 PROTEIN TRANSPORT PROTEIN SEC23, PUTATIVE): 1.08
fold change (protein LMJF.11.0590 3-[…]-COA C[…] SUBUNIT, PUTATIVE): 0.98
fold change relative to vehicle control (protein LMJF.11.0630, AMINOPEPTIDASE, PUTATIVE,METALLO-PEPTIDASE, CLAN MF, FAMILY M17): 1.23
fold change vs vehicle control (protein LMJF.11.1050 PRETRANSLOCATION PROTEIN, ALPHA SUBUNIT, PUTATIVE,SEC61-LIKE (PRETRANSLOCATION PROCESS) PROTEIN, PUTATIVE): 0.89
fold change (protein LMJF.11.1160 PROTEIN TRANSPORT PROTEIN SEC31, PUTATIVE): 0.83
fold change (protein LMJF.12.0030 PROTEASOME BETA-1 SUBUNIT, PUTATIVE): 0.95
fold change vs vehicle control (protein LMJF.12.0210 […] […]1L8 3, PUTATIVE): 1.05
fold change relative to vehicle control (protein LMJF.12.0530, GLUCOSE-6-PHOSPHATE ISOMERASE): 1.53
fold change (protein LMJF.12.0630 ALANINE AMINOTRANSFERASE): 0.86
fold change vs vehicle control (protein LMJF.13.1230 40S RIBOSOMAL PROTEIN S4, PUTATIVE): 1.16
fold change vs vehicle control (protein LMJF.14.0310 […] 3 SUBUNIT, PUTATIVE): 1.04
fold change (protein LMJF.14.0660 FATTY ACID ELONGASE, PUTATIVE): 0.88
fold change (protein LMJF.14.0670 FATTY ACID ELONGASE, PUTATIVE): 0.9
fold change vs vehicle control (protein LMJF.14.0680 FATTY ACID ELONGASE, PUTATIVE): 1.06
fold change (protein LMJF.14.0990 ADP/ATP MITOCHONDRIAL CARRIER-LIKE PROTEIN): 0.97
fold change vs vehicle control (protein LMJF.14.1160 ENOLASE): 1.01
fold change (protein LMJF.14.1440 HYPOTHETICAL PROTEIN, CONSERVED (cytoskeleton associated protein, putative)): 0.9
fold change (protein LMJF.15.0040 HYPOTHETICAL PROTEIN, CONSERVED (Possible lysine decarboxylase, putative)): 0.89
